The source made the active and inactive calls.
Assays:
[1] = inhibitors of firefly luciferase expression or activity, dose response, H4 neuroglioma cells, luminescence (AID 1990); assay type: functional, cell-based
HEK293 [2] = assay: NOD1 signaling inhibitors, primary screen, cell-based, luminescence, uHTS (AID 1578); assay type: functional; details: Homo sapiens
HEK293 [3] = assay: cells; assay type: functional, cell-based; details: Homo sapiens
[4] = Luminescence Cell-Based Dose Response HTS to Identify Inhibitors of 5'UTR Stem-Loop Driven Prion Protein mRNA Translation in H4 Neuroglioblastoma Cells. [Related pubchem assays: 1827 (Project Summary), 1813 (Primary HTS)]; assay type: functional
[5] = inhibitors of SNCA 5'UTR-driven reporter translation, confirmation, H4 neuroglioma cells, luminescence (AID 1988); assay type: functional, cell-based
HEK293 [6] = assay: cells; assay type: functional, cell-based; details: Homo sapiens; remark: listed apart in the source
HEK293 [7] = assay: NOD2 signaling inhibitors in MDP-stimulated cells, cell-based, uHTS, luminescence (AID 2001); assay type: functional; details: Homo sapiens
HEK293 [8] = assay: inhibitors of LMP1-driven NF-kB reporter, dose response, cell-based, HEK293, luciferase, cherry-pick (AID 588343); assay type: functional; details: Homo sapiens
[9] = LGR2 antagonists, dose response, cell-based, HEK293, CRE-luciferase reporter, cherry pick, set 2 (AID 743343); assay type: functional;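 further: transfected cells were stimulated with diluted bursicon conditioned medium after compound addition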
[10] = MC4R antagonists, dose response, counter-screen for LGR2 antagonist project, cell-based, plate reader, cherry pick (AID 743444); assay type: functional;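 further: transfected HEK 293 cells stimulated with alpha-MSH peptide; potency of inhibitors of the alpha-MSH evoked signal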
Trypsin = Trypsin (Sus scrofa, UniProt P00761); assay: porcine trypsin inhibitors, dose response, selectivity assay for Rce1 protease inhibitor project, biochemical, quenched peptide fluorescence, cherry-pick (AID 488789)
Sequence of Trypsin (P00761 whole entry): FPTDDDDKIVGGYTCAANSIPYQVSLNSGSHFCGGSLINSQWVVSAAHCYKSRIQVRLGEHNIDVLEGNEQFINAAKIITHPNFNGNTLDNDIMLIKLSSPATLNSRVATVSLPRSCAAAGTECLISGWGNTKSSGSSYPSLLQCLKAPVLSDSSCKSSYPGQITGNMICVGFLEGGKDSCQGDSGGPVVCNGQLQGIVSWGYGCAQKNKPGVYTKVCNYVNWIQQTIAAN

CAAX prenyl protease 2 [11] = molecular target: T1, CAAX prenyl protease 2 (Saccharomyces cerevisiae S288c, UniProt Q03530); assay type: biochemical
T1 sequence (Q03530 whole entry): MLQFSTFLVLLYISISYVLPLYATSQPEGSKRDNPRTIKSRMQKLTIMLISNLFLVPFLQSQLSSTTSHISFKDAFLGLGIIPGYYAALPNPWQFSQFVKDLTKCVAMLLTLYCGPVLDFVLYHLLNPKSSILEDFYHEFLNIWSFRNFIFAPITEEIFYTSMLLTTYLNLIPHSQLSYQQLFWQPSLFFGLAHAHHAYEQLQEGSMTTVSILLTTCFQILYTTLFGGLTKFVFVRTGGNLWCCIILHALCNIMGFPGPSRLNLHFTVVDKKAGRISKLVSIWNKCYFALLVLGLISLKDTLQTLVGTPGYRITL

CAAX prenyl protease 2 [12] = molecular target: T2, CAAX prenyl protease 2 (Homo sapiens, UniProt Q9Y256); assay: human Rce1 protease inhibitors, dose response, biochemical, yeast membranes, quenched-peptide fluorescence, cherry-pick (AID 588849)
T2 sequence (Q9Y256 whole entry): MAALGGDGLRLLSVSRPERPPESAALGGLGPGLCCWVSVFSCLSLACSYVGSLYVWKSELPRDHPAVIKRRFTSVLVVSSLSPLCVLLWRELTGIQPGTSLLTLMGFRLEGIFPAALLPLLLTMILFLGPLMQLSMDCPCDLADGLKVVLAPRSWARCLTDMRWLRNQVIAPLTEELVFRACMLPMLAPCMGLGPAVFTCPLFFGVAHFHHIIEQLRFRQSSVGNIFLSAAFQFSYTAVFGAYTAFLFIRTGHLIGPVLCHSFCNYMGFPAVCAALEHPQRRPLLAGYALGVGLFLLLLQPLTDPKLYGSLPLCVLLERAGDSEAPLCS

Nonstructural protein 1 = Nonstructural protein 1 (Influenza A virus, UniProt Q194T2); assay type: functional, Influenza A virus (A/California/07/2009(H1N1))
Sequence of Nonstructural protein 1 (Q194T2 whole entry): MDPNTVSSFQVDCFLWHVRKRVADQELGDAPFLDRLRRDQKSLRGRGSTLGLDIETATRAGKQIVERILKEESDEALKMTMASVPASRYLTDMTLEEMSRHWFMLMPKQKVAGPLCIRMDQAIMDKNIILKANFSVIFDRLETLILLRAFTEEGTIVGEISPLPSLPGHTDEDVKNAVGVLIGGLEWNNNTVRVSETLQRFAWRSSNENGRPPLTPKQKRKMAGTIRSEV

HEK293 [13] = assay: cells; assay type: functional, cell-based; details: Homo sapiens; remark: listed apart in the source
[14] = molecular target: T3, Nuclear receptor subfamily 0 group B member 1 (Homo sapiens, UniProt P51843); assay: Luminescence-based cell-based high throughput dose response assay for inhibitors of the orphan nuclear receptor subfamily 0, group B, member 1 (DAX1; NR0B1). [Related pubchem assays (depositor defined):AID504766, AID504790]; assay type: functional
T3 sequence (P51843 whole entry): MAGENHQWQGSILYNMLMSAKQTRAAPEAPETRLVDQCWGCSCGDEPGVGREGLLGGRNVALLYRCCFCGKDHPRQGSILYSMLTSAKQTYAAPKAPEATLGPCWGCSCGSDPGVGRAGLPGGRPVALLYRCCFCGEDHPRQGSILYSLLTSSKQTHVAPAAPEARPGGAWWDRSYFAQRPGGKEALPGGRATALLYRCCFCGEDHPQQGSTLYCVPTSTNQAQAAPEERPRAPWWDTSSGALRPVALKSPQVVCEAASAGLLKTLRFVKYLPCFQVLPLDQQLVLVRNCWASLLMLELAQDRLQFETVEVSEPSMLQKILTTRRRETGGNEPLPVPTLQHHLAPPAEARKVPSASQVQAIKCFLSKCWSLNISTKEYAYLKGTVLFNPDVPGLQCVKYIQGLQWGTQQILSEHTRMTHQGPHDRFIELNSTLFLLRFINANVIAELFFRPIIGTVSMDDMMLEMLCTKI

[15] = inhibitors of intracellular T. cruzi replication, confirmation, NIH3T3 host cells, beta-gal luminescence (AID 2044); assay type: functional, cell-based;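 further: intracellular parasites grown in NIH/3T3 mouse fibroblasts as host cells; luminescent beta-galactosidase reporter signal from transgenic T. cruzi replicating inside host cells; inhibitors lower the luminescence signal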
[16] = cytotoxicity toward NIH3T3 fibroblasts, dose response, counter-screen, cell-based, ATP luminescence, mouse fibroblasts (AID 2010); assay type: functional;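 further: cells exposed to compound for about 90 hours before reading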
Escherichia coli = assay: microbe, parasite or virus in culture
[17] = molecular target: T4, G-protein coupled receptor 35 (Homo sapiens, UniProt Q9HC97); assay: SAR analysis of Agonists of the GPR35 Receptor using an Image-Based Assay - Set 4. [Related pubchem assays (depositor defined):AID2013, AID2026]; assay type: functional
T4 sequence (Q9HC97 whole entry): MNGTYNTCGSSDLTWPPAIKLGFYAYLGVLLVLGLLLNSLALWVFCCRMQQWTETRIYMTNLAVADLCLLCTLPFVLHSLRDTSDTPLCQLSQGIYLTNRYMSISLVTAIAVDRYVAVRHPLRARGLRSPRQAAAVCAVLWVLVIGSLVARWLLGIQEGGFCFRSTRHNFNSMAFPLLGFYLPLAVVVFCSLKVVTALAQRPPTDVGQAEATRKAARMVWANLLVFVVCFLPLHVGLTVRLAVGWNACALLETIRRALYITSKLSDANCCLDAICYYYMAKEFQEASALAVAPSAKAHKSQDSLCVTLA

Cannabinoid receptor 1 [18] = molecular target: T5, Cannabinoid receptor 1 (Homo sapiens, UniProt P21554); assay: SAR analysis of agonists of the Cannabinoid Receptor 1 using an Image-Based Assay - Set 4. [Related pubchem assays (depositor defined):AID2013, AID2026]; assay type: functional
T5 sequence (P21554 whole entry): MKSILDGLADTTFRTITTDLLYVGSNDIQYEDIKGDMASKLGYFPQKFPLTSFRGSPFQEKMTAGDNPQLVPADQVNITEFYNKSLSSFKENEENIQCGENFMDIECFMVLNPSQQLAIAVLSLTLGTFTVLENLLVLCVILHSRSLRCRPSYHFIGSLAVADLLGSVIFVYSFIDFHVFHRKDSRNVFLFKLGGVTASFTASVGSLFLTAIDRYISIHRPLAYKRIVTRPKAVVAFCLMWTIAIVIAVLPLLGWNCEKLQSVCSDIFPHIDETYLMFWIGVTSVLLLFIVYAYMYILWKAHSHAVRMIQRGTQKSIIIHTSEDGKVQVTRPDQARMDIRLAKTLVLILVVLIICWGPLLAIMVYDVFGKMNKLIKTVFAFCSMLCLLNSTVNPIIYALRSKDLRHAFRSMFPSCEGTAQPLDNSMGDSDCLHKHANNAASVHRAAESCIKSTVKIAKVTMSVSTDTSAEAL

[19] = molecular target: T4, G-protein coupled receptor 35; assay: SAR analysis of Antagonists of the GPR35 Receptor using an Image-Based Assay - Set 6. [Related pubchem assays (depositor defined):AID2013, AID2026]; assay type: functional
Cannabinoid receptor 1 [20] = molecular target: T5, Cannabinoid receptor 1; assay: SAR analysis of antagonists of the Cannabinoid Receptor 1 using an Image-Based Assay - Set 4. [Related pubchem assays (depositor defined):AID2013, AID2026]; assay type: functional
[21] = molecular target: G-protein coupled receptor 55 (Homo sapiens, UniProt Q9Y2T6); assay: SAR Analysis of Selective Antagonists of GPR55 using an Image-Based Assay - Set 4. [Related pubchem assays (depositor defined):AID2013, AID2026]; assay type: functional;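 further: antagonism of response to 5 µM lysophosphatidylinositol agonist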
Sequence of G-protein coupled receptor 55 (Q9Y2T6 whole entry): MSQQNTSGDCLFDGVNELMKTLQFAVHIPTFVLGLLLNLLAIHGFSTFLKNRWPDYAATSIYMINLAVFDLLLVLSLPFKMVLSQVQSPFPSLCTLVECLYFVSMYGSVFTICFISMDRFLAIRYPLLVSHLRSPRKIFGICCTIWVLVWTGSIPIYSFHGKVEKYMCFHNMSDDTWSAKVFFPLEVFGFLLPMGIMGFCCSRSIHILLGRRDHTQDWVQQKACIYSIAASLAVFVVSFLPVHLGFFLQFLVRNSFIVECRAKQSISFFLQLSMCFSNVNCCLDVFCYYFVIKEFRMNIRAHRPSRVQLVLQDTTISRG

Cannabinoid receptor 2 [22] = molecular target: T6, Cannabinoid receptor 2 (Homo sapiens, UniProt P34972); assay: SAR analysis of antagonists of the Cannabinoid Receptor 2 using an Image-Based Assay - Set 3. [Related pubchem assays (depositor defined):AID2013, AID2026]; assay type: functional
T6 sequence (P34972 whole entry): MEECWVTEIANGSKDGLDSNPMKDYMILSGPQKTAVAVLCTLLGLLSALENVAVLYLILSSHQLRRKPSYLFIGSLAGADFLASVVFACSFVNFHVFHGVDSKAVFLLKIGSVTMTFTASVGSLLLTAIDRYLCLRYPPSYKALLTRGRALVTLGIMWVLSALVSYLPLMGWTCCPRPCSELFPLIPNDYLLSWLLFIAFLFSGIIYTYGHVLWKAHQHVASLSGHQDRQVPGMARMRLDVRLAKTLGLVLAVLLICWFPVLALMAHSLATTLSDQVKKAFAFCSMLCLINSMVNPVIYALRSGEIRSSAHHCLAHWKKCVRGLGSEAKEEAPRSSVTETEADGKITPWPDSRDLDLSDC

Cannabinoid receptor 2 [23] = molecular target: T6, Cannabinoid receptor 2; assay: SAR analysis of agonists of the Cannabinoid Receptor 2 using an Image-Based Assay - Set 3. [Related pubchem assays (depositor defined):AID2013, AID2026]; assay type: functional
[24] = HEp-2 cell cytotoxicity, dose response, cytotoxicity control for RSV inhibitor project, HTS (AID 2410); assay type: functional; details: human respiratory syncytial virus
[25] = test system: Streptococcus sp. 'group A'; assay: growth inhibition of control SK(-) GAS strain, dose response, counter-screen for streptokinase expression inhibitor project, luminescence, kanamycin, BacTiterGlo, confirmation (AID 1900); assay type: functional, organism-based
Streptokinase A = molecular target: T7, Streptokinase A (Streptococcus pyogenes serotype M1, UniProt P10520); assay: S. pyogenes streptokinase expression inhibitors, potency, dose response, plasminogen activation absorbance, OD405 (AID 1914); assay type: functional, Streptococcus pyogenes M1 GAS;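 further: secreted streptokinase activity via plasminogen activation per viability signal from cell pellet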
T7 sequence (P10520 whole entry): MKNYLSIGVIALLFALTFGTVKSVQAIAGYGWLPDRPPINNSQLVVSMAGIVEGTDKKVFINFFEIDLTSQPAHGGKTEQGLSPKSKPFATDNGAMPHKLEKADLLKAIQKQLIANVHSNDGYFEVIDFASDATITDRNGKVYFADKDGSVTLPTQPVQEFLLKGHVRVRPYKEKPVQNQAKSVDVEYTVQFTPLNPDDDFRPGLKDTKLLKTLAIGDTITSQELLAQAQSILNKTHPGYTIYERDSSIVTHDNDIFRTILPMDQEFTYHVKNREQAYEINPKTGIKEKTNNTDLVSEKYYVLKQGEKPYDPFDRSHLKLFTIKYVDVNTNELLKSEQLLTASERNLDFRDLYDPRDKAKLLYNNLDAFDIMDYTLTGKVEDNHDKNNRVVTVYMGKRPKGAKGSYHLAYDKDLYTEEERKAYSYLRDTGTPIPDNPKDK

Streptococcus = assay: Group A Streptococcus viability loss, dose response, counter-screen for streptokinase expression inhibitor project, luminescence, BacTiterGlo (AID 1915); assay type: functional, organism-based;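 further: potency for reduction of bacterial viability or growth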
Cytochrome P450 2D6 = Cytochrome P450 2D6 (Homo sapiens, UniProt P10635);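 further: CYP2D6 member of a cytochrome P450 panel assay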
Sequence of Cytochrome P450 2D6 (P10635 whole entry): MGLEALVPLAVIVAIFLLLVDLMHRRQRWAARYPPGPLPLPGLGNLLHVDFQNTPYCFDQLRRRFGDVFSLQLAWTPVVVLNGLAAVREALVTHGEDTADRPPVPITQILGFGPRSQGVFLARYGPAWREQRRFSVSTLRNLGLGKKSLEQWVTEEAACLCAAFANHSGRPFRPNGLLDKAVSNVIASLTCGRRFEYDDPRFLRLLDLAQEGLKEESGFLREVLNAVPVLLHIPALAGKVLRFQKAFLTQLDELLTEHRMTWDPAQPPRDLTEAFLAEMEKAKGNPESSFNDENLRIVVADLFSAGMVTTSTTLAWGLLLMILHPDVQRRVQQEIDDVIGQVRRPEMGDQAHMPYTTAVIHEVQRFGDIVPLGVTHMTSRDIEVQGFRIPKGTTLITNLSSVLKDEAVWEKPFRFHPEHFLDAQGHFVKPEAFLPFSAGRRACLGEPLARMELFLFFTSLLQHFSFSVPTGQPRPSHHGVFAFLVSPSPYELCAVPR

Cytochrome P450 2C9 = Cytochrome P450 2C9 (Homo sapiens, UniProt P11712)
Sequence of Cytochrome P450 2C9 (P11712 whole entry): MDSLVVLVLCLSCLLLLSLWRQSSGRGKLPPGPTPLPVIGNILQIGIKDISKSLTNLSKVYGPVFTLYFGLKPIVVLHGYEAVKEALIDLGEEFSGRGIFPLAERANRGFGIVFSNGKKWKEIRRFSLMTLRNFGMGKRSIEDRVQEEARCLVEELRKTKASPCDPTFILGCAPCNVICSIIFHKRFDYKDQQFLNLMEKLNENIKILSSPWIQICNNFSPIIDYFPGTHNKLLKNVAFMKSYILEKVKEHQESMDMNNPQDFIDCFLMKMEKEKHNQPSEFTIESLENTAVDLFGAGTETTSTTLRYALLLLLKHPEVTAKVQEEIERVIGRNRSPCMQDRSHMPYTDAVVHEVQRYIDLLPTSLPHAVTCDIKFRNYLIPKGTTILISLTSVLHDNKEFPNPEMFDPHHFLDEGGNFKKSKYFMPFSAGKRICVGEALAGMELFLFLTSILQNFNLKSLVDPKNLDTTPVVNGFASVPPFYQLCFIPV

[26] = Luminescence Cell-Based Dose Response HTS to Identify Activators of Luciferase Translation or Activity in H4 […] Cells. [Related pubchem assays: 1829 (Project Summary), 1814 (Primary HTS)]; assay type: functional

## O=C1OCCC1Sc1nnc(-c2ccc(Cl)cc2Cl)o1 (centres undefined)
[1]
  EC50: 7.77 µM (active)
HEK293 [2]
  EC50: 6.32 µM (active)
HEK293 [3]
  IC50: 6.93 µM (active)
[4]
  EC50: 9.97 µM (active)
[5]
  EC50: 8.84 µM (active)
HEK293 [6]
  IC50: > 20 µM (inactive)
HEK293 [7]
  IC50: 13 µM (inactive)
HEK293 [8]
  AC50: 7.18 µM (active)
[9]
  AC50: 9.34 µM (active)
[10]
  AC50: 9.84 µM (active)

## O=C(c1ccc(Cn2cnnn2)cc1)N1CCCC(Nc2ccc(F)cc2)C1 (centres undefined)
Trypsin
  AC50: 5.79 µM (active)
CAAX prenyl protease 2 [11]
  AC50: 5.9 µM (active)
CAAX prenyl protease 2 [12]
  AC50: 22.6 µM (active)

## Cc1ccnc2nc(C(=O)Nc3nc(-c4ccccn4)cs3)nn12
Nonstructural protein 1
  IC50: 5.06 µM (active)
HEK293 [13]
  IC50: 65.2 µM (inactive)
[14]
  IC50: > 67.5 µM (inactive)

## Clc1ccc(C2[C@H]3CN(Cc4cccnc4)[C@H](c4ccccc4)C34CC2(c2ccccc2)C4)cn1 (some centres undefined)
[15]
  EC50: 1.61 µM (active)
[16]
  EC50: 9.94 µM (active)
Escherichia coli
  AC50: 34.8 µM (active)

## Fc1ccccc1/C=N/Nc1cc(N2CCCCC2)ncn1
HEK293 [13]
  IC50: > 67.5 µM (inactive)
[14]
  IC50: > 67.5 µM (inactive)

## Cc1nnc(-c2ccc(Cl)cc2)c2cn(-c3ccccc3)nc12
[17]
  EC50: > 32 µM (inactive)
Cannabinoid receptor 1 [18]
  EC50: > 32 µM (inactive)
[19]
  IC50: > 32 µM (inactive)
Cannabinoid receptor 1 [20]
  IC50: 3.58 µM (active)
[21]
  IC50: 19.2 µM (inactive)
Cannabinoid receptor 2 [22]
  IC50: 19.5 µM (inactive)
Cannabinoid receptor 2 [23]
  EC50: > 32 µM (inactive)

## COc1ccc(-c2nnc(C)c3nn(-c4ccc(Cl)cc4)cc23)cc1
[17]
  EC50: > 32 µM (inactive)
Cannabinoid receptor 1 [18]
  EC50: > 32 µM (inactive)
[19]
  IC50: > 32 µM (inactive)
Cannabinoid receptor 1 [20]
  IC50: 1.47 µM (active)
[21]
  IC50: 3.56 µM (active)
Cannabinoid receptor 2 [22]
  IC50: 13.2 µM (inactive)
Cannabinoid receptor 2 [23]
  EC50: > 32 µM (inactive)

## COc1cc(-c2c(C#N)c(N)nc3c2c(C)nn3-c2ccc(C)c(C)c2)cc(OC)c1OC
[24]
  CC50: 22.1 µM (active)
[25]
  EC50: 5.69 µM (active)
Streptokinase A
  EC50: > 150 µM (not active)
Streptococcus
  EC50: 36.4 µM (active)
Trypsin
  AC50: 16.1 µM (active)
CAAX prenyl protease 2 [12]
  AC50: 11.2 µM (active)
cells
  IC50: 31.8 µM (active)

## CCn1c2ccccc2c2cc(/C=N/NC(=O)c3ccc(O)cc3)ccc21
Trypsin
  AC50: 4.51 µM (active)
CAAX prenyl protease 2 [11]
  AC50: 21.6 µM (active)
CAAX prenyl protease 2 [12]
  AC50: 40.3 µM (active)

## CC(C)NC(=O)c1cc2c(=O)n3ccccc3nc2n(C2CCCC2)c1=N
[17]
  EC50: > 32 µM (inactive)
Cannabinoid receptor 1 [18]
  EC50: > 32 µM (inactive)
[19]
  IC50: > 32 µM (inactive)
Cannabinoid receptor 1 [20]
  IC50: > 32 µM (inactive)
[21]
  IC50: > 32 µM (inactive)
Cannabinoid receptor 2 [22]
  IC50: > 32 µM (inactive)
Cannabinoid receptor 2 [23]
  EC50: 9.06 µM (active)

## CNC(=O)OCC[N+](C)(C)C
Cytochrome P450 2D6
  AC50: inconclusive

## Cc1ccc(C)c(C(=O)C2=C(O)C(=O)N(Cc3cccnc3)C2c2cccnc2)c1 (centres undefined)
Cytochrome P450 2C9
  AC50: 3.16 µM (inconclusive)
Cytochrome P450 2D6
  AC50: inconclusive

## O=C(Nc1ccc(F)cc1)/C(Cl)=C/c1ccccc1
[26]
  EC50: 5.09 µM (active)
HEK293 [13]
  IC50: > 67.5 µM (inactive)
[14]
  IC50: > 67.5 µM (inactive)

## Cc1nc(-c2cccc(S(=O)(=O)N3CCOCC3)c2)cs1
Escherichia coli
  AC50: 35.7 µM (active)
